In article PMC7761077, “Differential Effects of Cancer-Associated Mutations Enriched in Helix H3 of PPARγ” (Cancers, 2020):
Numbering of substitutions follows the chain as printed. Values belong to the molecule of their own block, whether it stands above or below them.

Tests used:
PPARγ LBD R288C = biological target: T1, PPARγ LBD R288C (Homo sapiens, UniProt P37231, R316C); test: ITC binding of endogenous ligands to PPARγ LBD R288C; conditions: PBS pH 7.2, 25 °C, ligand 0.9 mM
T1 construct: PPARγ LBD (residues 195–477 in PPARγ1 numbering) was cloned into the expression vector pET-28b(+); made in house; host or cells: Escherichia coli Rosetta 2(DE3)
T1 sequence (P37231 195-477 isoform P37231-2 R288C): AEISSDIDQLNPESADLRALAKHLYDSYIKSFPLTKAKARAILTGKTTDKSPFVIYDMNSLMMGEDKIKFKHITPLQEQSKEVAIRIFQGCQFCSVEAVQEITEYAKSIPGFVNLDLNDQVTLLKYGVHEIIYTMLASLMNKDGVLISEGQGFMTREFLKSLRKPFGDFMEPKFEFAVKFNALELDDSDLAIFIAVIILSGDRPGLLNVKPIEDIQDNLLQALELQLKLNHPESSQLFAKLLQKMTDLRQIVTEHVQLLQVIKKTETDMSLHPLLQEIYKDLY
Protocol: (§1) Since PPARγ is physiologically regulated by endogenous ligands, it is possible that the activation of PPARγ mutants would be induced upon binding to known endogenous PPARγ ligands. […] […]. […] […].
(§2) All the measurements were conducted in the buffer of PBS pH 7.2 at 25 °C. The ligands filled in the syringe were titrated into the proteins in the cell using 19 injections of 2 μL and an initial injection of 0.4 μL with 150 s equilibration between injections. The final protein concentrations of PPARγ LBD WT and mutants were 60 μM for 15d-PGJ2 at the ligand concentration of 900 μM and 45 μM for 13S-HODE at the ligand concentration of 900 μM, respectively. The obtained data were analyzed using Origin 7.0 software.

PPARγ LBD C285Y = biological target: T2, PPARγ LBD C285Y (Homo sapiens, UniProt P37231, C313Y); test: ITC binding of endogenous ligands to PPARγ LBD C285Y; conditions: PBS pH 7.2, 25 °C, ligand 0.9 mM
T2 construct: PPARγ LBD (residues 195–477 in PPARγ1 numbering) was cloned into the expression vector pET-28b(+); made in house; host or cells: Escherichia coli Rosetta 2(DE3)
T2 sequence (P37231 195-477 isoform P37231-2 C285Y): T1 sequence (P37231 195-477 isoform P37231-2 R288C) with C91Y, C94R
Protocol: as §1, §2

PPARγ LBD S289C = biological target: T3, PPARγ LBD S289C (Homo sapiens, UniProt P37231, S317C); test: ITC binding of endogenous ligands to PPARγ LBD S289C; conditions: PBS pH 7.2, 25 °C, ligand 0.9 mM
T3 construct: PPARγ LBD (residues 195–477 in PPARγ1 numbering) was cloned into the expression vector pET-28b(+); made in house; host or cells: Escherichia coli Rosetta 2(DE3)
T3 sequence (P37231 195-477 isoform P37231-2 S289C): T1 sequence (P37231 195-477 isoform P37231-2 R288C) with C94R, S95C
Protocol: as §1, §2

PPARγ LBD F287Y = biological target: T4, PPARγ LBD F287Y (Homo sapiens, UniProt P37231, F315Y); test: ITC binding of endogenous ligands to PPARγ LBD F287Y; conditions: PBS pH 7.2, 25 °C, ligand 0.9 mM
T4 construct: PPARγ LBD (residues 195–477 in PPARγ1 numbering) was cloned into the expression vector pET-28b(+); made in house; host or cells: Escherichia coli Rosetta 2(DE3)
T4 sequence (P37231 195-477 isoform P37231-2 F287Y): T1 sequence (P37231 195-477 isoform P37231-2 R288C) with F93Y, C94R
Protocol: as §1, §2

PPARγ LBD WT = biological target: T5, PPARγ LBD WT (Homo sapiens, UniProt P37231); test: ITC binding of endogenous ligands to PPARγ LBD WT; conditions: PBS pH 7.2, 25 °C, ligand 0.9 mM
T5 construct: PPARγ LBD (residues 195–477 in PPARγ1 numbering) was cloned into the expression vector pET-28b(+); made in house; host or cells: Escherichia coli Rosetta 2(DE3)
T5 sequence (P37231 195-477 isoform P37231-2): T1 sequence (P37231 195-477 isoform P37231-2 R288C) with C94R
Protocol: as §1, §2

PPARγ LBD R288H = biological target: T6, PPARγ LBD R288H (Homo sapiens, UniProt P37231, R316H); test: ITC binding of endogenous ligands to PPARγ LBD R288H; conditions: PBS pH 7.2, 25 °C, ligand 0.9 mM
T6 construct: PPARγ LBD (residues 195–477 in PPARγ1 numbering) was cloned into the expression vector pET-28b(+); made in house; host or cells: Escherichia coli Rosetta 2(DE3)
T6 sequence (P37231 195-477 isoform P37231-2 R288H): T1 sequence (P37231 195-477 isoform P37231-2 R288C) with C94H
Protocol: as §1, §2

PPARγ LBD Q286P = biological target: T7, PPARγ LBD Q286P (Homo sapiens, UniProt P37231, Q314P); test: ITC binding of endogenous ligands to PPARγ LBD Q286P; conditions: PBS pH 7.2, 25 °C, ligand 0.9 mM
T7 construct: PPARγ LBD (residues 195–477 in PPARγ1 numbering) was cloned into the expression vector pET-28b(+); made in house; host or cells: Escherichia coli Rosetta 2(DE3)
T7 sequence (P37231 195-477 isoform P37231-2 Q286P): T1 sequence (P37231 195-477 isoform P37231-2 R288C) with Q92P, C94R
Protocol: as §1, §2

PPARγ LBD Q286E = biological target: T8, PPARγ LBD Q286E (Homo sapiens, UniProt P37231, Q314E); test: ITC binding of endogenous ligands to PPARγ LBD Q286E; conditions: PBS pH 7.2, 25 °C, ligand 0.9 mM
T8 construct: PPARγ LBD (residues 195–477 in PPARγ1 numbering) was cloned into the expression vector pET-28b(+); made in house; host or cells: Escherichia coli Rosetta 2(DE3)
T8 sequence (P37231 195-477 isoform P37231-2 Q286E): T1 sequence (P37231 195-477 isoform P37231-2 R288C) with Q92E, C94R
Protocol: as §1, §2

PPARγ LBD R280C = biological target: T9, PPARγ LBD R280C (Homo sapiens, UniProt P37231, R308C); test: ITC binding of endogenous ligands to PPARγ LBD R280C; conditions: PBS pH 7.2, 25 °C, ligand 0.9 mM
T9 construct: PPARγ LBD (residues 195–477 in PPARγ1 numbering) was cloned into the expression vector pET-28b(+); made in house; host or cells: Escherichia coli Rosetta 2(DE3)
T9 sequence (P37231 195-477 isoform P37231-2 R280C): T1 sequence (P37231 195-477 isoform P37231-2 R288C) with R86C, C94R
Protocol: as §1, §2

[1] = biological target: MED1 co-activator peptide containing the LXXLL motif; test: SPR; MED1 peptide amine-coupled to a CM5 chip (about 60 RU); PPARγ LBD WT or mutant injected at 78 nM to 10 μM, 30 μL/min, 120 s, dissociation 400 s; Biacore T200, 25 °C; 50 mM Tris-HCl pH 7.5, 150 mM NaCl, 1 mM TCEP, 0.005% tween 20; 1:1 Langmuir model
RXRα LBD = test: SPR heterodimerization of PPARγ LBD proteins with immobilized RXRα LBD; assay type: binding
Protocol: The transcriptional activity of PPARγ is regulated by heterodimer formation with RXRα and the recruitment of co-regulators.
(§3) The binding affinities of PPARγ LBD with lobeglitazone, RXRα and MED1 were investigated by SPR kinetics experiments. All SPR experiments were conducted at 25 °C in a Biacore T200 system (GE Healthcare). For immobilization, an amine coupling kit containing 0.1 M N-hydroxysuccinimide and 0.4 M 1-ethyl-3-(3-dimethylaminopropyl) carbodiimide hydrochloride on a CM5 sensor chip with HBS-EP (HEPES-buffered saline with EDTA and surfactant P20) buffer (10 mM HEPES pH 7.5, 150 mM NaCl, 3 mM EDTA, 0.005% tween 20) was used according to the manufacturer’s protocol (GE Healthcare). […] The remaining activated carboxyl groups on the CM5 sensor chip surface were deactivated with 1 M ethanolamine at pH 8.5 for 400 s. The control experiment was treated identically with reference flow cell 1 or 3 without proteins and the response by the control was subtracted from each sample dataset. […] The sensor chip surface was regenerated for 5 s with 5 mM NaOH between cycles. […] The SPR response data were fit to the simple bimolecular 1:1 Langmuir isotherm binding model to determine the equilibrium dissociation constant (KD) using Biacore T200 evaluation software 3.0 (GE Healthcare).

MED1 peptide = test: SPR binding of PPARγ LBD proteins to immobilized MED1 co-activator peptide
Protocol: Next, we evaluated the interaction between PPARγ LBD and MED1 co-activator peptides containing the LXXLL motif, where X represents any amino acid residue, by SPR (Figure 3D–F and Figure S8).
as §3

[2] = biological target: T10, PPARγ LBD WT (peroxisome proliferator-activated receptor gamma ligand-binding domain, wild-type) (human, UniProt P37231-2 195-477); test: SPR; RXRα LBD amine-coupled to a CM5 chip (about 600 RU); PPARγ LBD WT or mutant injected, 30 μL/min, 120 s, dissociation 500 s; Biacore T200, 25 °C; 50 mM Tris-HCl pH 7.5, 150 mM NaCl, 1 mM TCEP, 0.005% tween 20; 1:1 Langmuir model; conditions: both partners purified
T10 construct: numbers count on: the PPARγ1 isoform; pET-28b(+) between Nde1 and Xho1; also called PPARγ WT; source: E. coli Rosetta 2(DE3), purified (Ni2+ HiTrap chelating, thrombin cleavage, Superdex200 gel filtration); not shown: His6, N-terminal, cleaved
T10 sequence (looked up): T1 sequence (P37231 195-477 isoform P37231-2 R288C) with C94R

Molecule: CCCCC[C@H](O)/C=C/C=C\CCCCCCCC(=O)O [13S-HODE, 13S-hydroxy-9Z,11E-octadecadienoic acid]
Kd (PPARγ LBD R288C): > 201 µM
Kd (PPARγ LBD C285Y): 42.7 µM
Kd (PPARγ LBD S289C): > 201 µM
Kd (PPARγ LBD F287Y): 27.7 µM
Kd (PPARγ LBD WT): 14.6 µM
Kd (PPARγ LBD R288H): 67.1 µM
Kd (PPARγ LBD Q286P): > 201 µM
Kd (PPARγ LBD Q286E): 45.9 µM
Kd (PPARγ LBD R280C): > 201 µM

Molecule: CCCCCC=CC=C1C(=O)C=C[C@@H]1CC=CCCCC(=O)O [15d-PGJ2, 15-deoxy-∆^12,14-prostaglandin J2]
Kd (PPARγ LBD C285Y): 162 µM
Kd (PPARγ LBD S289C): 42.9 µM
Kd (PPARγ LBD F287Y): 65.3 µM
Kd (PPARγ LBD WT): 51 µM
Kd (PPARγ LBD R288H): > 201 µM
Kd (PPARγ LBD Q286P): 201 µM
Kd (PPARγ LBD R280C): > 201 µM

Kd [1]: 5.61 µM
Molecule: PPARγ LBD Q286E (from UniProt P37231-2 195-477) (domain or fragment)

Kd [1]: 8.45 µM
Molecule: PPARγ LBD WT (peroxisome proliferator-activated receptor gamma ligand-binding domain, wild-type) (from UniProt P37231-2 195-477) (domain or fragment)

kd for RXRα LBD (RXRα LBD): 0.0223 s⁻¹
Kd (RXRα LBD; 25 °C, RXRα LBD immobilized): 57.9 nM
ka for MED1 peptide (MED1 peptide): 146000 M⁻¹ s⁻¹
kd for MED1 peptide (MED1 peptide): 1.24 s⁻¹
Kd (MED1 peptide; 25 °C, MED1 peptide immobilized): 8.45 µM
Molecule: PPARγ LBD WT: recombinant human PPARγ ligand-binding domain (residues 195–477), wild-type
ka for RXRα LBD (RXRα LBD): 396000 M⁻¹ s⁻¹

Kd [2]: 57.9 nM
B1: RXRα LBD (retinoid X receptor α ligand-binding domain) (domain or fragment, UniProt P19793 223-462, looked up)
chain: TSSANEDMPVERILEAELAVEPKTETYVEANMGLNPSSPNDPVTNICQAADKQLFTLVEWAKRIPHFSELPLDDQVILLRAGWNELLIASFSHRSIAVKDGILLATGLHVHRNSAHSAGVGAIFDRVLTELVSKMRDMQMDKTELGCLRAIVLFNPDSKGLSNPAEVEALREKVYASLEAYCKHKYPEQPGRFAKLLLRLPALRSIGLKCLEHLFFFKLIGDTPIDTFLMEMLEAPHQMT
